Results taken from publication PMC7583847 (2020).

Experiments:
Test in all cases: UV melting at 260 nm
pApU (RNA, polymer) A/U = conditions: Na+ (sodium cacodylate, I = 0.05 M); sodium cacodylate pH 7.0; r = [compound]/[polynucleotide] = 0.2; per base
[1] = system: polyAH+-polyAH+ (RNA, polymer, protonated adenines (pH 5)) A; conditions: Na+ (sodium cacodylate, I = 0.05 M); sodium cacodylate pH 5.0; r = 0.2; second transition of poly A-poly U (free Tm 80.1 °C); per base
[2] = system: p(dAdT)2 (DNA, polymer) AT; conditions: Na+ (sodium cacodylate, I = 0.05 M); sodium cacodylate pH 7.0; r = [compound]/[polynucleotide] = 0.2; per base

`COC(=O)C(Cc1cn(CCCCN2C=CC(=Cc3sc4ccc(Br)cc4[n+]3C)c3ccccc32)nn1)NC(=O)c1ccc(C(=O)NC(=N)N)[nH]1` (stereo not drawn) was tested, and the ΔTm (pApU (RNA, polymer) A/U) was 3.0 ± 0.5 °C, the ΔTm [1] was 1.0 ± 0.5 °C and the ΔTm [2] was 1.1 ± 0.5 °C.
`COC(=O)C(Cc1cn(CCCC[n+]2c(C=C3C=CN(C)c4ccccc43)sc3ccc(Br)cc32)nn1)NC(=O)c1ccc(C(=O)NC(=N)N)[nH]1` (stereo not drawn) was tested, and the ΔTm (pApU (RNA, polymer) A/U) was 1.0 ± 0.5 °C, the ΔTm [1] was 1.0 ± 0.5 °C and the ΔTm [2] was 0.3 ± 0.5 °C.
